Assay results: patent US7524851B2 (Robert Bosch Gesellschaft fur Medizinische Forschung (RBMF), priority 2003, dated 2009)

Experiments:
Type in all cases: cell-based, human
Rac1 [1] = test: Rac1 protein expression (Western blot, immunocytochemistry)
Method: (§1) Western blots: Equal amounts of extract (30 μg) were added to 8 μl of electrophoresis sample buffer (Firma Roth; Karlsruhe, Germany). After boiling, the extracts were loaded on 15% SDS-PAGE gels and electrophoretically separated. Proteins were transferred to nitrocellulose membranes, and detection was performed with the ECL Western blotting analysis system (Amersham). […]
(§2) Immunocytochemical analysis: Immunocytochemistry was performed as described in Atreya et al., supra and Finotto et al., J. Exp. Med. 193:1247-1260 (2001)). […] Cells were rinsed with PBS, and nuclei were counterstained with Hoechst33342 blue for fluorescence (Molecular Probes; Burlingame, Calif., USA). Finally, cells were washed in PBS and analyzed with an Olympus Microscope. Six to ten high-power fields were finally analyzed in all patients per condition, and selected high-power fields were further analyzed by confocal laser microscopy.

[2] = test system: primary CD4+ T lymphocytes; test: T cell vitality and clonal expansion (trypan blue)
Method: Analysis of T cell vitality and clonal expansion: To induce T cell expansion, purified T lymphocytes were stimulated with coated antibodies to CD3 (0.04 μg/ml), soluble antibodies to CD28 (1 μg/ml), and recombinant IL-2 (40 U/ml) for the indicated periods of time. […] Cell viability was assessed by trypan blue (Sigma-Aldrich) staining at the beginning and at the end of the cell culture. The clonal expansion of T cells during cell culture was calculated by the ratio between cell numbers at the beginning and at the end of the cell culture.

vav = vav protein expression (Western blot, immunocytochemistry)
Method: as §1, §2

Rac1 [3] = test: Rac1 activation assay (GTP-bound Rac1, PAK pull-down); conditions: primary T cells, 3 days
Method: (§3) Cell lysates were incubated with 10 μg/ml PAK-1 agarose (Rac assays) or 10 μg/mg Raf RBD agarose (Ras assay) for 60 minutes (Rac assays) or 30 minutes (Ras assays) at 4° C. Agarose beads were collected by centrifugation followed by denaturation, boiling of the samples, and SDS-PAGE analysis.

MEK = MEK phosphorylation and expression (Western blot, FACS); conditions: 3 days
Method: FACS analysis: Analysis of peripheral blood T cells and lamina propria T lymphocytes by FACS (FACSscan; Becton Dickinson; Berlin, Germany) was performed using FITC-labeled murine antibodies to human CD4 (PharMingen), anti-mouse IgG1 isotype control antibodies (PharMingen), antibodies to bcl-xL and p mitogen-activated protein kinase kinase (pMEK) (Santa Cruz Biotech; Santa Cruz, Calif., USA), and goat anti-mouse Fab-FITC (DAKO). For intracellular staining analysis, T cells were fixed in PBS/4% paraformaldehyde (Merck; Munich, Germany) for 10 minutes at 4° C., washed twice in PBS, permeabilized in PBS/0.1% Triton X-100 (Sigma-Aldrich; Steinheim, Germany), and treated with mouse anti-human bcl-xL or MEK antibodies (2 μg per 5×10^5 cells) for 30 minutes on ice. T cells were washed twice in PBS/0.1% Triton X-100 before incubation with goat anti-mouse Fab-FITC (2 μl per 10^5 cells). Finally, T cells were washed twice in PBS before FACS analysis.
The cells were then washed in PBS, resuspended in 1 ml of T40E10N150 buffer (40 mM Tris-HCl [pH 7.9], 10 mM EDTA [pH 8.0], 150 mM NaCl), put on ice for 5 minutes, and centrifuged for 4 minutes at 4° C. at 1,000 rpm. The cell pellet was then resuspended on ice in 70 μl of buffer (10 mM HEPES [pH 8.0], 400 mM NaCl, 0.1 mM EDTA, 5% glycerol, 1 mM DTT, 1 mM PMSF) and centrifuged at 15,000 rpm for 30 minutes at 4° C. The protein concentrations in supernatants were determined with the Bio-Rad Protein Assay (Bio-Rad; Munich, Germany).
as §1

Ras = Ras activation assay (GTP-bound Ras, Raf RBD pull-down); conditions: primary T cells
Method: as §3

In the case of `Sc1ncnc2nc[nH]c12` [6-MP, 6-mercaptopurine], the “expression of Rac1” value (Rac1 [1]) is reported as “not significantly suppressed”, the “clonal expansion of T cells” value ([2]; day 5) is reported as “suppresses clonal expansion” and the “expression of the guanosine exchange factor vav” value (vav) is reported as “induced”. For the same molecule, the “CD28 costimulation induced Rac1 activation (GTP-bound Rac1)” value (Rac1 [3]) was “strongly suppressed”, the MEK phosphorylation (MEK) was “suppresses” and the “activation of Ras (GTP-bound Ras)” value (Ras) was “fail to modulate”.
`Cn1cnc([N+](=O)[O-])c1Sc1ncnc2nc[nH]c12` [azathioprine, Azathioprine] was tested, and the “expression of Rac1” value (Rac1 [1]) was “not significantly suppressed”, the “clonal expansion of T cells” value ([2]; day 5) was “reduction in the clonal expansion” and the “clonal expansion of T cells” value ([2]; earlier time points than day 5) was “no significant changes”. The “expression of the guanosine exchange factor vav” value (vav) was “induced”, the “CD28 costimulation induced Rac1 activation (GTP-bound Rac1)” value (Rac1 [3]) was “strongly suppressed” and the MEK phosphorylation (MEK) was “suppressed”. For the same molecule, the “expression levels of MEK” value (MEK) was “nearly unchanged” and the “activation of Ras (GTP-bound Ras)” value (Ras) was “virtually unaffected”.
